Laboratory results reported in patent US20060264460A1 (Wyeth, priority 2005, published 2006).

biological target: T1, human Cot/Tpl2 kinase (Homo sapiens, UniProt P41279); test: Tpl2/Cot kinase assay: GST-MEK1 phosphorylation detected by ELISA (DELFIA Eu); assay type: biochemical; conditions: 0.4 nM Tpl2, 35 nM GST-MEK1, 50 uM ATP, 1 h at 30° C.
T1 construct: human Cot/Tpl2 kinase construct encoding residues 30-398; 6His (N); made in house; host or cells: Sf9 insect cells, baculovirus system (BD Biosciences)
T1 sequence (P41279 30-398): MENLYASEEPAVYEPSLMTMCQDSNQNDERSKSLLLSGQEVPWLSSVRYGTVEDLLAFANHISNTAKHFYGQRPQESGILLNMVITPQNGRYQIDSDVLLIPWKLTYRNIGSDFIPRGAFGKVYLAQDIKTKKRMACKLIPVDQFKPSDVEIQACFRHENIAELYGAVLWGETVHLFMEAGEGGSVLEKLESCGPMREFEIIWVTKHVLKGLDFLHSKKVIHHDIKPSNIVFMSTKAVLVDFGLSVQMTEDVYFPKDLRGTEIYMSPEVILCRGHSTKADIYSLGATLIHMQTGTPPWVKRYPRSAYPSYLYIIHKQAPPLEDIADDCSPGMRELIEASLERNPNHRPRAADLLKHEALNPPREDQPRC
Summary of the method: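 Substrate phosphorylation (GST-MEK1 Ser217/221) quantified by DELFIA europium ELISA, yielding IC50 values. Reaction: 1 h at 30° C, pH 7.2 MOPS buffer, 50 uM ATP, 35 nM GST-MEK1, 0.4 nM monomeric His-Tpl2 purified from Sf9 cells, compounds at 1% final DMSO; stopped with EDTA.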

Compound	IC50 [nM]
CC(Nc1ccc2ncc(C#N)c(Nc3ccc(F)c(Cl)c3)c2c1)c1cnc[nH]1 (stereo not drawn) [Example 179, 6-(1-(1H-imidazol-5-yl)ethylamino)-4-(3-chloro-4-fluorophenylamino)quinoline-3-carbonitrile]	3900
N#Cc1cnc2cc(OCCCN3CCOCC3)c(NCc3cnc[nH]3)cc2c1Nc1ccc(F)c(Cl)c1 [Example 159, 6-((1H-imidazol-5-yl)methylamino)-4-(3-chloro-4-fluorophenylamino)-7-(3-morpholinopropoxy)quinoline-3-carbonitrile]	9200
N#Cc1cnc2c(Br)cc(NCc3cccc[n+]3[O-])cc2c1Nc1ccc(F)c(Cl)c1 [Example 101, 8-bromo-4-(3-chloro-4-fluorophenylamino)-6-(1-oxypyridin-2-ylmethylamino)quinoline-3-carbonitrile]	4.1
CC(C)(C)OC(=O)N1CCC[C@H]1CNc1ccc2ncc(C#N)c(Nc3ccc(F)c(Cl)c3)c2c1 [Example 40, 2-{[4-(3-Chloro-4-fluoro-phenylamino)-3-cyano-quinolin-6-ylamino]-methyl}-L-pyrrolidine-1-carboxylic acid tert-butyl ester]	2400
N#Cc1cnc2c(C(F)(F)F)cc(NCc3ccccc3F)cc2c1Nc1ccc(F)c(Cl)c1 [Example 235, 4-[(3-chloro-4-fluorophenyl)amino]-6-[(2-fluorobenzyl)amino]-8-(trifluoromethyl)quinoline-3-carbonitrile]	> 40000
N#Cc1cnc2ccc(NCc3c[nH]nc3-c3cccs3)cc2c1Nc1ccc(F)c(Cl)c1 [Example 35, 4-(3-Chloro-4-fluoro-phenylamino)-6-[(3-thiophen-2-yl-1H-pyrazol-4-ylmethyl)-amino]-quinoline-3-carbonitrile]	1800
CC(C)(C)OC(=O)N1CCCC(CNc2ccc3ncc(C#N)c(Nc4ccc(F)c(Cl)c4)c3c2)C1 (stereo not drawn) [Example 63, 3-{[4-(3-Chloro-4-fluoro-phenylamino)-3-cyano-quinolin-6-ylamino]-methyl}-piperidine-1-carboxylic acid tert-butyl ester]	> 40000
N#Cc1cnc2c(Cl)cc(NCc3cn(C4CCC5(CC4)OCCO5)nn3)cc2c1Nc1ccc(F)c(Cl)c1 [Example 332, 8-chloro-4-[(3-chloro-4-fluorophenyl)amino]-6-({[1-(1,4-dioxaspiro[4.5]dec-8-yl)-1H-1,2,3-triazol-4-yl]methyl}amino)quinoline-3-carbonitrile]	39
N#Cc1cnc2ccc(NCc3cc4ccccc4[nH]3)cc2c1Nc1ccc(F)c(Cl)c1 [Example 157, 6-((1H-indol-2-yl)methylamino)-4-(3-chloro-4-fluorophenylamino)quinoline-3-carbonitrile]	8500
N#Cc1cnc2c(Cl)cc(NCc3ccc(S(N)(=O)=O)cc3)cc2c1Nc1ccc(F)c(Cl)c1 [Example 186, 4-((8-chloro-4-(3-chloro-4-fluorophenylamino)-3-cyanoquinolin-6-ylamino)methyl)benzenesulfonamide]	45
N#Cc1cnc2c(Br)cc(NCc3nn[nH]c3CO)cc2c1Nc1ccc(F)c(Cl)c1 [Example 294, 8-Bromo-4-(3-chloro-4-fluoro-phenylamino)-6-[(5-hydroxymethyl-1H-[1,2,3]triazol-4-ylmethyl)-amino]-quinoline-3-carbonitrile]	500
C/C=C/c1cc(NCc2cccnc2)cc2c(Nc3ccc(F)c(Cl)c3)c(C#N)cnc12 [Example 109, (E)-4-(3-chloro-4-fluorophenylamino)-8-(prop-1-enyl)-6-(pyridin-3-ylmethylamino)quinoline-3-carbonitrile]	2200
N#Cc1cnc2ccc(NCc3cnc[nH]3)cc2c1Nc1cccc(Br)c1 [Example 169, 6-((1H-imidazol-5-yl)methylamino)-4-(3-bromophenylamino)quinoline-3-carbonitrile]	21
N#Cc1cnc2c(Cl)cc(NCCc3nnn[nH]3)cc2c1Nc1ccc(F)c(Cl)c1 [Example 200, 8-chloro-4-[(3-chloro-4-fluorophenyl)amino]-6-{[2-(1H-tetrazol-5-yl)ethyl]amino}quinoline-3-carbonitrile]	68
N#Cc1cnc2c(Cl)cc(NCCN=[N+]=[N-])cc2c1Nc1ccc(F)c(Cl)c1 [Example 210, 6-[(2-azidoethyl)amino]-8-chloro-4-[(3-chloro-4-fluorophenyl)amino]quinoline-3-carbonitrile]	1900
CNc1nc(SC)ncc1CNc1cc(Cl)c2ncc(C#N)c(Nc3ccc(F)c(Cl)c3)c2c1 [Example 280, 8-chloro-4-[(3-chloro-4-fluorophenyl)amino]-6-({[4-(methylamino)-2-(methylthio)pyrimidin-5-yl]methyl]amino)quinoline-3-carbonitrile]	> 40000
C[C@@H](Nc1ccc2ncc(C#N)c(Nc3ccc(F)c(Cl)c3)c2c1)c1ccccn1 [Example 172, (R)-4-(3-chloro-4-fluorophenylamino)-6-(1-(pyridin-2-yl)ethylamino)quinoline-3-carbonitrile]	84
CC(O)Cc1nn[nH]c1CNc1cc(Br)c2ncc(C#N)c(Nc3ccc(F)c(Cl)c3)c2c1 (stereo not drawn) [Example 318, 8-bromo-4-(3-chloro-4-fluorophenylamino)-6-((5-(2-hydroxypropyl)-3H-1,2,3-triazol-4-yl)methylamino)quinoline-3-carbonitrile]	5.7

same assay, conditions: Table 2; Tpl2/Cot kinase, GST-MEK1 substrate, 50 uM ATP

Compound	IC50 [nM]
CC(=O)Nc1ccc(-n2cc(CNc3cc(Cl)c4ncc(C#N)c(Nc5ccc(F)c(Cl)c5)c4c3)nn2)cc1 [Example 634]	35
CS(=O)(=O)CCn1cnc(CNc2cc(Br)c3ncc(C#N)c(Nc4ccc(F)c(Cl)c4)c3c2)c1 [Example 529]	43
Cn1nnnc1CCNc1cc(Cl)c2ncc(C#N)c(Nc3ccc(F)c(Cl)c3)c2c1 [Example 469]	170
CN(C)CCCn1cc(CNc2cc(Br)c3ncc(C#N)c(Nc4ccc(F)c(Cl)c4)c3c2)nn1 [Example 480]	20
CC(C)(C)Nc1c(C#N)cnc2ccc(NCc3cnc[nH]3)cc12 [Example 401]	3100
N#Cc1cnc2c(Br)cc(NCc3nc[nH]n3)cc2c1Nc1ccc(F)c(Cl)c1 [Example 484]	110
N#Cc1cnc2c(Br)cc(NCCN3CCOCC3)cc2c1Nc1cccc(Cl)c1 [Example 372]	420
N#Cc1cnc2c(Br)cc([N+](=O)[O-])cc2c1Nc1cccc(Cl)c1 [Example 362]	> 10000
N#Cc1cnc2c(Cl)cc(NCc3cn(CCN4CCOCC4)cn3)cc2c1Nc1ccc(F)c(Cl)c1 [Example 490]	33
Cc1cc(CNc2cc(Cl)c3ncc(C#N)c(Nc4ccc(F)c(Cl)c4)c3c2)n[nH]1 [Example 429]	100
N#Cc1cnc2ccc(NCc3ccc(S(N)(=O)=O)cc3)cc2c1NC1CCCC1 [Example 411]	7300
N#Cc1cnc2c(Cl)cc(NCc3cccc(O)c3O)cc2c1Nc1ccc(F)c(Cl)c1 [Example 458]	1300
N#Cc1cnc2c(F)cc(NCc3cncn3O)cc2c1Nc1ccc(F)c(Cl)c1 [Example 437]	200
CCN(C[C@@H]1CCCN1C(=O)OC(C)(C)C)c1cc(Cl)c2ncc(C#N)c(Nc3ccc(F)c(Cl)c3)c2c1 [Example 623]	> 3000

same assay, conditions: Tpl2/Cot kinase, GST-MEK1 substrate, 50 uM ATP

Compound	IC50 [nM]
CCN1CCCC(Nc2cc(Cl)c3ncc(C#N)c(Nc4ccc(F)c(Cl)c4)c3c2)C1 (stereo not drawn) [Example 868]	1190
N#Cc1cnc2c(Cl)cc(NC3CCCC3n3cc(CCO)nn3)cc2c1Nc1ccc(F)c(Cl)c1 (stereo not drawn) [Example 803]	67
N#Cc1cnc2c(Br)cc(NCc3cn(-c4cc[n+]([O-])cc4)nn3)cc2c1Nc1ccc(F)c(Cl)c1 [Example 748]	15
N#Cc1cnc2c(Cl)cc(NCc3cn(CCN4CCOCC4)cn3)cc2c1Nc1ccc(F)c(Cl)c1 [Example 670]	33
CC(C)N1CCC(Cn2cc(CNc3cc(Cl)c4ncc(C#N)c(Nc5ccc(F)c(Cl)c5)c4c3)nn2)CC1 [Example 827]	11
N#Cc1cnc2c(Cl)cc(NCc3cn(CC(=O)N4CCCCCC4)nn3)cc2c1Nc1ccc(F)c(Cl)c1 [Example 814]	4.6
N#Cc1cnc2c(Cl)cc(NCc3cn(CCCNS(=O)(=O)C(F)(F)F)nn3)cc2c1Nc1ccc(F)c(Cl)c1 [Example 906]	1.3
CN1CCCC1CCn1cnc(CNc2cc(Br)c3ncc(C#N)c(Nc4ccc(F)c(Cl)c4)c3c2)c1 (stereo not drawn) [Example 708]	34
N#Cc1cnc2c(Cl)cc(NCCNC(=O)Cc3cccnc3)cc2c1Nc1ccc(F)c(Cl)c1 [Example 862]	> 3000

same assay, conditions: Tpl2/Cot kinase, GST-MEK1 substrate, 50 uM ATP, 1 h at 30° C.; Table 2

Compound	IC50 [nM]
N#Cc1cnc2c(Cl)cc(NCc3cn(C4CC5CCC(C4)N5C=O)nn3)cc2c1Nc1ccc(F)c(Cl)c1 (stereo not drawn) [Example 1059]	14
CC(C)N1CCN(CCn2cc(CNc3cc(Cl)c4ncc(C#N)c(Nc5ccc(F)c(Cl)c5)c4c3)nn2)CC1 [Example 965]	430
N#Cc1cnc2c(Cl)cc(NCc3cn(C4CC5CCC(C4)N5CC4CC4)nn3)cc2c1Nc1ccc(F)c(Cl)c1 (stereo not drawn) [Example 1057]	11
N#Cc1cnc2c(Cl)cc(NCc3cn(C4CCN(CC(O)CO)CC4)nn3)cc2c1Nc1ccc(F)c(Cl)c1 (stereo not drawn) [Example 994]	6.8
N#Cc1cnc2c(Cl)cc(N(Cc3cn(C4CCN(CC5CC5)CC4)nn3)CC3CC3)cc2c1Nc1ccc(F)c(Cl)c1 [Example 1028]	410
N#Cc1cnc2c(Cl)cc(NCc3cn(C4CCN(C(=O)OCCF)CC4)nn3)cc2c1Nc1ccc(F)c(Cl)c1 [Example 982]	31
N#Cc1cnc2c(Cl)cc(NCc3cn(CCC4CCN(C5CCCC5)CC4)nn3)cc2c1Nc1ccc(F)c(Cl)c1 [Example 938]	200
